From patent US8258116B2, “Combination therapy for the treatment of HCV infection” (Vertex Pharmaceuticals Incorporated, priority 2007, dated 2012)
Like-named read-outs stand apart in the source and are kept apart here.

Experiments:
[1] = system: HCV replicon cells (wild-type clone 24-2, Huh-7); assay: 2-day Replicon assay with bDNA quantitation, checkerboard combination (Bliss independence / MacSynergy); assay type: cell-based; conditions: Hepatitis C virus, Huh-7, 48 h, polymerase inhibitor in the checkerboard experiment with VX-950, read-out: Polymerase Inhibitor IC50
Protocol: Huh-7 cells were propagated in Dulbecco's modified Eagle's medium (DMEM, JRH Biosciences, Lenexa, Kans.) supplemented with 10% heat-inactivated FBS (fetal bovine serum), 2 mM L-glutamine, and nonessential amino acids (JRH). The cells were transfected with an in vitro transcribed HCV replicon RNA identical to replicon 1377neo/NS3-3′/wt as described by Lohmann et al. (1999). Stable cell clones were selected and maintained in the presence of 250 μg/mL G418 (Invitrogen, Carlsbad, Calif.). One of the clones, 24-2, was used as the wild-type in the subsequent HCV replicon assays for combination studies. The HCV NS3 protease variant replicons were constructed in the background of the mADE wild-type replicon as described previously [Chao Lin et al., “In Vitro Resistance Studies of Hepatitis C Virus Serine Protease Inhibitors, VX-950 and BILN 2061: Structural Analysis Indicates Different Resistance Mechanisms,” Journal of Biological Chemistry, 279(17); pp. 17508-17514 (2004)]. The replicon cells were propagated in DMEM supplemented with 10% FBS, 2 mM L-glutamine, nonessential amino acids, and 250 μg/mL G418. The cells were split twice per week in fresh media upon reaching confluence. There are approximately 200-300 copies of HCV RNA per 24-2 replicon cell.
(§1) HCV replicon RNA from cells was measured using the Quantigene Discover XL kit (Panomics Inc., Fremont Calif.) as per the manufacturer's instructions. Briefly, compound-treated replicon cells were lysed and immobilized on to capture plates using HCV specific oligonucleotides (designed based on the 5′ UTR region of HCV 1b genome sequence AJ238799 in the GenBank database) over night and the relative amounts of captured RNA was measured using oligonucleotide probe sets as per the manufacturer's instructions.
(§2) On the day prior to the assay, 10,000 replicon cells were plated per well of a 96-well plate and allowed to attach and grow overnight in DMEM (Invitrogen, Carlsbad, Calif.) supplemented with 10% heat-inactivated FBS (JRH Biosciences, Lenexa, Kans.), 2 mM L-glutamine (Invitrogen), nonessential amino acids (Invitrogen) and 250 μg/ml G418 (Invitrogen). Next day, the medium was removed and antiviral agents that were serially diluted in DMEM containing 2% FBS and 0.5% DMSO (Sigma Chemical Co., St. Louis, Mo.) without G418, was added. The replicon cells were incubated with the antiviral agents for 48 h. HCV replicon RNA from cells was measured using the Quantigene Discover XL kit (Panomics Inc., Fremont Calif.) as per the manufacturer's instructions. Briefly, compound-treated replicon cells were lysed and immobilized onto capture plates using HCV specific oligonucleotides overnight and the relative amounts of captured RNA was measured using oligonucleotide probe sets as per the manufacturer's instructions. Unless indicated otherwise, each data point represents the average of three replicates. The IC50 is the concentration of the compound at which the HCV replicon RNA level in cells is reduced by 50% as compared to the untreated replicon cell controls. To monitor the effect of compounds on cell proliferation or cell viability, replicon cells were treated with serially diluted compounds for 48 h, after which cell viability was determined using a CellTiter Glo assay (Promega, Madison, Wis.). Each CC50 is derived from at least two replicates and is the concentration of the compound at which the number of viable cells is reduced by 50% as compared to untreated cell controls. The IC50 and CC50 was determined using 4-parameter curve fitting in the SoftMax Pro program (Molecular Devices, Sunnyvale, Calif.).
The effects of drug-drug combinations were evaluated using the Bliss independence model [W. R. Greco et al., “The search for synergy: a critical review from a response surface perspective,” Pharmacol. Rev., 47, pp. 331-385 (1995)]. The experimental data were analyzed by using MacSynergy, a three-dimensional analytical method developed by Prichard and Shipman [M. N. Prichard and C. […]

[2] = system: HCV replicon Wild Type (mADE); assay: 2-Day HCV Replicon IC50 Assay, wild type replicon; assay type: cell-based; conditions: for IC50: Hepatitis C virus; for Fold Change: ratio of IC50 to Wild type IC50 for the same inhibitor
Protocol: (§3) Huh-7 cells were propagated in Dulbecco's modified Eagle's medium (DMEM, JRH Biosciences, Lenexa, Kans.) supplemented with 10% heat-inactivated FBS (fetal bovine serum), 2 mM L-glutamine, and nonessential amino acids (JRH). The cells were transfected with an in vitro transcribed HCV replicon RNA identical to replicon 1377neo/NS3-3′/wt as described by Lohmann et al. (1999). Stable cell clones were selected and maintained in the presence of 250 μg/mL G418 (Invitrogen, Carlsbad, Calif.). […] The HCV NS3 protease variant replicons were constructed in the background of the mADE wild-type replicon as described previously [Chao Lin et al., “In Vitro Resistance Studies of Hepatitis C Virus Serine Protease Inhibitors, VX-950 and BILN 2061: Structural Analysis Indicates Different Resistance Mechanisms,” Journal of Biological Chemistry, 279(17); pp. 17508-17514 (2004)]. The replicon cells were propagated in DMEM supplemented with 10% FBS, 2 mM L-glutamine, nonessential amino acids, and 250 μg/mL G418. The cells were split twice per week in fresh media upon reaching confluence. There are approximately 200-300 copies of HCV RNA per 24-2 replicon cell.
as §1, §2
(§4) The sensitivity of NS3 protease variants to ribavirin and interferon was assessed in a 2-Day HCV Replicon IC50 Assay.

[3] = system: HCV NS3 protease variant replicon R155K; assay: microbe, parasite or virus in culture; assay type: cell-based; conditions: for IC50: Hepatitis C virus; for Fold Change: R155K, ratio of mutant IC50 to Wild type IC50 for the same inhibitor
Protocol: as §3, §1, §2, §4

[4] = system: HCV NS3 protease variant replicon T54A; assay: microbe, parasite or virus in culture; assay type: cell-based; conditions: for IC50: Hepatitis C virus; for Fold Change: T54A, ratio of mutant IC50 to Wild type IC50 for the same inhibitor
Protocol: as §3, §1, §2, §4

[5] = system: HCV NS3 protease variant replicon V36A; assay: microbe, parasite or virus in culture; assay type: cell-based; conditions: for IC50: Hepatitis C virus; for Fold Change: V36A, ratio of mutant IC50 to Wild type IC50 for the same inhibitor
Protocol: as §3, §1, §2, §4

[6] = system: HCV NS3 protease variant replicon V36M+R155K; assay: microbe, parasite or virus in culture; assay type: cell-based; conditions: for Fold Change: V36M-R155K, ratio of mutant IC50 to Wild type IC50 for the same inhibitor
Protocol: as §3, §1, §2, §4

[7] = system: HCV NS3 protease variant replicon V36M; assay: microbe, parasite or virus in culture; assay type: cell-based; conditions: for IC50: Hepatitis C virus; for Fold Change: V36M, ratio of mutant IC50 to Wild type IC50 for the same inhibitor
Protocol: as §3, §1, §2, §4

[8] = system: HCV NS3 protease variant replicon A156T; assay: 2-Day HCV Replicon IC50 Assay, A156T; assay type: cell-based; conditions: for Fold Change: A156T, ratio of mutant IC50 to Wild type IC50 for the same inhibitor; for IC50: Hepatitis C virus, read-out: Avg. IC50 ± STDEV
Protocol: as §3, §1, §2, §4

[9] = system: HCV NS3 protease variant replicon A156V; assay: 2-Day HCV Replicon IC50 Assay, A156V; assay type: cell-based; conditions: for Fold Change: A156V, ratio of mutant IC50 to Wild type IC50 for the same inhibitor; for IC50: Hepatitis C virus, read-out: Avg. IC50 ± STDEV
Protocol: as §3, §1, §2, §4

[10] = system: HCV NS3 protease variant replicon R155M; assay: microbe, parasite or virus in culture; assay type: cell-based
Protocol: as §3, §1, §2, §4

[11] = system: HCV NS3 protease variant replicon R155T; assay: microbe, parasite or virus in culture; assay type: cell-based
Protocol: as §3, §1, §2, §4

[12] = system: HCV NS3 protease variant replicon V36A-R155K; assay: microbe, parasite or virus in culture; assay type: cell-based
Protocol: as §3, §1, §2, §4

[13] = system: HCV NS3 protease variant replicon V36A-R155T; assay: microbe, parasite or virus in culture; assay type: cell-based
Protocol: as §3, §1, §2, §4

[14] = system: HCV NS3 protease variant replicon V36M-R155T; assay: microbe, parasite or virus in culture; assay type: cell-based
Protocol: as §3, §1, §2, §4

[15] = system: HCV NS3 protease variant replicon A156T; conditions: A156T replicon versus wild-type (Lin et al., 2005); cited from earlier work
[16] = system: HCV NS3 protease variant replicon A156V; conditions: A156V replicon versus wild-type (Lin et al., 2005); cited from earlier work
[17] = Table 8, Wild Type replicon, read-out: Avg. IC50 ± STDEV
[18] = Hepatitis C virus, read-out: Avg. IC50

| SMILES | IC50 [1] | IC50 [2, 17] | Fold Change ([2]; Wild Type replicon) | IC50 ([3]; read-out: Avg. IC50 ± STDEV) | Fold Change [3] | IC50 ([4]; read-out: Avg. IC50 ± STDEV) | Fold Change [4] | IC50 ([5]; read-out: Avg. IC50 ± STDEV) | Fold Change [5] | Fold Change [6] | IC50 ([7]; read-out: Avg. IC50 ± STDEV) | Fold Change [7] | Fold Change [8] | IC50 [8] | Fold Change [9] | IC50 [9] | also measured |
| --- | --- | --- | --- | --- | --- | --- | --- | --- | --- | --- | --- | --- | --- | --- | --- | --- | --- |
| CCN(CC)C1CCN(C(=O)Cn2c(-c3ccc(Cl)cc3)c(C3CCCCC3)c3ccc(C(=O)O)cc32)CC1 [Formula III] | 0.7 µM | 0.313 ± 0.032 µM | 1.0 | 0.39 ± 0.065 µM | 1.2 | 0.337 ± 0.045 µM | 1.1 | 0.369 ± 0.066 µM | 1.2 | 1.3 | 0.227 ± 0.064 µM | 0.7 | 1.0 | 0.306 ± 0.01 µM | 0.9 | 0.297 ± 0.066 µM |  |
| O=c1c(C2=NS(=O)(=O)c3ccccc3N2)c(O)c2ccccc2n1NC1CCC1 [Formula II] | 1.04 µM | 0.347 ± 0.108 µM | 1.0 | 0.45 ± 0.023 µM | 1.3 | 0.564 ± 0.111 µM | 1.6 | 0.571 ± 0.093 µM | 1.6 | 1.7 | 0.36 ± 0.164 µM | 1.0 | 0.9 | 0.326 ± 0.003 µM | 0.8 | 0.264 ± 0.045 µM |  |
| C[C@@]1(O)[C@H](O)[C@@H](CO)O[C@H]1n1ccc(N)nc1=O [Formula I] | 7.21 µM | 1.34 ± 0.473 µM | 1.0 | 2.37 ± 0.678 µM | 1.8 | 1.98 ± 0.388 µM | 1.5 | 2.15 ± 0.874 µM | 1.6 | 2.0 | 1.59 ± 0.361 µM | 1.2 | 0.9 | 1.27 ± 0.185 µM | 1.0 | 1.31 ± 0.216 µM |  |
| NC(=O)c1ncn([C@@H]2O[C@H](CO)[C@@H](O)[C@H]2O)n1 [Ribavirin, 1-beta-D-ribofuranosyl-1H-1,2,4-triazole-3-carboxamide, reference compound] |  |  | 1.0 |  | 0.6 |  | 0.4 |  | 0.7 | 0.7 |  | 0.6 |  |  |  |  | IC50 ([2]; Ribavirin, Wild Type (mADE) replicon, read-out: Avg. IC50): 57.8 ± 17.6 µM; IC50 ([3]; read-out: Avg. IC50): 37.2 ± 17 µM; IC50 [10, 18]: 38.9 ± 4.7 µM; Fold Change ([10]; R155M, ratio of mutant IC50 to Wild type IC50 for the same inhibitor): 0.7; IC50 [11, 18]: 32.4 ± 17.7 µM; Fold Change ([11]; R155T, ratio of mutant IC50 to Wild type IC50 for the same inhibitor): 0.6; IC50 ([4]; read-out: Avg. IC50): 21.7 ± 11.1 µM; IC50 [12, 18]: 35.8 ± 2.2 µM; Fold Change ([12]; V36A-R155K, ratio of mutant IC50 to Wild type IC50 for the same inhibitor): 0.6; IC50 [13, 18]: 41.7 ± 21.6 µM; Fold Change ([13]; V36A-R155T, ratio of mutant IC50 to Wild type IC50 for the same inhibitor): 0.7; IC50 ([5]; read-out: Avg. IC50): 43.1 ± 21.3 µM; IC50 [6, 18]: 40.6 ± 6.1 µM; IC50 [14, 18]: 36.4 ± 1.3 µM; Fold Change ([14]; V36M-R155T, ratio of mutant IC50 to Wild type IC50 for the same inhibitor): 0.6; IC50 ([7]; read-out: Avg. IC50): 32.9 ± 17.8 µM; sensitivity of replicon [15]: comparable to the wild-type; sensitivity of replicon [16]: comparable to the wild-type |
